Results reported in publication PMC7618036, “An oral heme oxygenase inhibitor targets immunosuppressive perivascular macrophages in preclinical models of cancer” (Science translational medicine, 2025).

System: CD8^+ T-cells in MMTV-PyMT tumors
Test: Flow cytometry of the TME of MMTV-PyMT tumors after 36 h treatment
Assay type: in vivo, mouse
Conditions: single-agent therapy
Procedure: At 36 h post treatment initiation of treatment mice were sacrificed and tumors were harvested and analyzed. (A) Schematic representing the dosing strategy. (B) The fold change of tumor growth over 36 h post initiation of treatment. (C-G) Tumors were enzyme-digested to release single cells which were analyzed for their live (7AAD^-) stromal cell composition using flow cytometry (n=5 tumors per group) (C) and CD8^+ T-cells (D). Gating strategy (left panel) and quantitation of CD8^+ T-cell subsets based on CD62L and CD44 expressions (right panel; TCM; T central memory cells, TEM; T effector memory cells, Teff; T effectors cells) (E), and the ability of the tumoral CD8^+ T-cells to secrete IFNγ post ex vivo exposure to PMA/ionomycin treatment (F). […] Scale bar is 100 µm and white arrows indicate infiltrating CD8^+ T-cells. […] Image in panel (A) was created using BioRender. Bar charts show the mean, error bars SD, and the dots show individual data points from individual tumors and mice. Gemc.; gemcitabine. * P<0.05, ** P<0.01, *** P<0.001.
MN-MCA1 sarcoma cells were orthotopically implanted into syngeneic C57Bl/6 mice for tumors. A total of 2.5 x 10^5 cells in 100 μL RPMI were injected subcutaneously into female mice. […] When tumors became palpable, volumes were measured every 2-4 days using digital caliper measurements of the long (L) and short (S) dimensions of the tumor. […]

O=c1[nH]cc(F)c(=O)[nH]1 [5-FU, 5-fluorouracil]
abundance of CD8^+ T-cells in the TME: increase in the abundance of CD8^+ T-cells
